Laboratory results taken from patent EP0909764A1, “11 Beta-Benzaldoxim-9 Alpha, 10 Alpha-epoxy-estr-4-en-derivatives, a process for their production and pharmaceutical compositions containing them” (JENAPHARM GmbH, priority 1997, dated 1999).

Assays:
Progesteronrezeptor = molecular target: T1, Progesteronrezeptor (Oryctolagus cuniculus, UniProt P06186); assay: Receptor binding affinity, competitive binding with 3H-ORG 2058 in uterus cytosol; design: species or system Kaninchen; settings: uterus cytosol of estradiol-primed rabbit; tracer 3H-ORG 2058 5nM; 18 h at 0-4°C; quotient of IC50 values x 100 %
T1 construct: Rezeptoren im Cytosol aus tierischen Target-Organen; from tissue; host or cells: uterus cytosol of estradiol-primed rabbit
T1 sequence (P06186 1-930): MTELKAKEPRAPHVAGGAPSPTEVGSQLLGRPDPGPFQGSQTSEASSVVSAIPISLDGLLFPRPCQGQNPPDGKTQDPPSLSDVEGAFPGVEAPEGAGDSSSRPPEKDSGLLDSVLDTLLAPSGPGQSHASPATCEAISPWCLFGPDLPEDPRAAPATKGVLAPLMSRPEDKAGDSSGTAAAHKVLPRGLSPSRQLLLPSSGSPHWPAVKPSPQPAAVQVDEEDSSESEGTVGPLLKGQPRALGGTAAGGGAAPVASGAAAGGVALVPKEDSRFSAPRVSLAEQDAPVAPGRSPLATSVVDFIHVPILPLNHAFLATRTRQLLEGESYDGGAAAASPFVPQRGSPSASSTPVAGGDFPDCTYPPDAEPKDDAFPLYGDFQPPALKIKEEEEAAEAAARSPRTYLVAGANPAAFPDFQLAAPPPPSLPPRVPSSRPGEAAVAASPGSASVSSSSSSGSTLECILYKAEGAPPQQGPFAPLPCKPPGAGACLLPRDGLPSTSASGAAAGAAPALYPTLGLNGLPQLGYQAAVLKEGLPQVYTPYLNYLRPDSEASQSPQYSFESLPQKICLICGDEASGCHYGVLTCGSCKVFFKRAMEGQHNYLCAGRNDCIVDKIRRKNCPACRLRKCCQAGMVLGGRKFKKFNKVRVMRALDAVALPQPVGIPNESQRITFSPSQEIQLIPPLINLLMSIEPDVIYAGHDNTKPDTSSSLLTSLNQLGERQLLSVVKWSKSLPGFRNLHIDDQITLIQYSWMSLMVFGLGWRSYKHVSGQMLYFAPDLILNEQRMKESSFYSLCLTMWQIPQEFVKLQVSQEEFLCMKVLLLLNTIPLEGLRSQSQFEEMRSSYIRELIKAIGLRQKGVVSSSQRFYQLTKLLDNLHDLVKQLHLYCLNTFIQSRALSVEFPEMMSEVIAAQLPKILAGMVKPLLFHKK
Protocol: (§1) Die Rezeptor-Bindungsaffinität wurde bestimmt durch competitive Bindung eines spezifisch bindenden ^3H-markierten Hormons (Tracer) und der zu testenden Verbindung an Rezeptoren im Cytosol aus tierischen Target-Organen. Dabei wurden Rezeptorsättigung und Reaktionsgleichgewicht angestrebt. Folgende Inkubationsbe-dingungen wurden gewählt: • Progesteron-Rezeptor: Uterus-Cytosol des Estradiol-geprimten Kannchens, aufbe-wahrt bei -30° C. Puffer für Homogenisation und Inkubation: TED-Puffer 20 mM Tris/HCl, pH= 7,4; 1mM Ethylendiamintetraacetat, 2 mM Dithiothreitol) mit 250mM Saccharose. Tracer: ^3H-ORG 2058, 5nM; Referenzsubstanz: Progesteron. • Glucocorticoid-Rezeptor: Thymus-Cytosol der adrenalectomierten Ratte. Thymi aufbewahrt bei -30 °C. Puffer: TED. Tracer: ^3H-Dexamethason, 20nM. Referenzsub-stanz: Dexamethason. • Estrogen-Rezeptor: Uterus-Cytosol des unreifen Kaninchens, aufbewahrt bei -30 °C. Puffer:TED mit 250 mM Saccharose. Tracer: ^3H-Estradiol, 3nM. Referenzsubstanz: 17β-Estradiol.
(§2) Nach einer Inkubation von Rezeptorfraktion, Tracer und Competitor für 18 h bei 0-4°C erfolgte die Trennung von gebundenem und freiem Steroid durch Einmischen von Aktivkohle/Dextran (1 % / 0,1 %), Abzentrifugieren und Messung der rezeptorgebundenen ^3H-Aktivität im Überstand.
Aus der Messung in Konzentrationsreihen wurden die IC50 für die Referenzsubstanz und für die zu testende Verbindung ermittelt und als Quotient beider Werte (x 100 %) die relative molare Bindungsaffinität bestimmt. Nach einer Inkubationsdauer von 18 Stunden bei 0-4 °C erfolgte die Trennung von gebundenen und freiem Steroid durch Einmischen von Aktivkohle/Dextran / 1%/0,1 %), abzentrifugieren und Messung der gebundenen ^3H-Aktivität im Überstand. Aus der Messung in Konzentrationsreihen wurden die IC50 für die zu testende Substanz und für die Referenzverbindung ermittelt und als Quotient beider Werte (x 100 %) die relative molare Bindungsaffinität bestimmt.

Glucocorticoidrezeptor = molecular target: T2, Glucocorticoidrezeptor (Rattus norvegicus, UniProt P06536); assay: Receptor binding affinity, competitive binding with 3H-Dexamethason in thymus cytosol; design: species or system Ratte; settings: thymus cytosol of adrenalectomised rat; tracer 3H-Dexamethason 20nM; 18 h at 0-4°C; quotient of IC50 values x 100 %
T2 construct: Rezeptoren im Cytosol aus tierischen Target-Organen; from tissue; host or cells: thymus cytosol of adrenalectomised rat
T2 sequence (P06536 1-795): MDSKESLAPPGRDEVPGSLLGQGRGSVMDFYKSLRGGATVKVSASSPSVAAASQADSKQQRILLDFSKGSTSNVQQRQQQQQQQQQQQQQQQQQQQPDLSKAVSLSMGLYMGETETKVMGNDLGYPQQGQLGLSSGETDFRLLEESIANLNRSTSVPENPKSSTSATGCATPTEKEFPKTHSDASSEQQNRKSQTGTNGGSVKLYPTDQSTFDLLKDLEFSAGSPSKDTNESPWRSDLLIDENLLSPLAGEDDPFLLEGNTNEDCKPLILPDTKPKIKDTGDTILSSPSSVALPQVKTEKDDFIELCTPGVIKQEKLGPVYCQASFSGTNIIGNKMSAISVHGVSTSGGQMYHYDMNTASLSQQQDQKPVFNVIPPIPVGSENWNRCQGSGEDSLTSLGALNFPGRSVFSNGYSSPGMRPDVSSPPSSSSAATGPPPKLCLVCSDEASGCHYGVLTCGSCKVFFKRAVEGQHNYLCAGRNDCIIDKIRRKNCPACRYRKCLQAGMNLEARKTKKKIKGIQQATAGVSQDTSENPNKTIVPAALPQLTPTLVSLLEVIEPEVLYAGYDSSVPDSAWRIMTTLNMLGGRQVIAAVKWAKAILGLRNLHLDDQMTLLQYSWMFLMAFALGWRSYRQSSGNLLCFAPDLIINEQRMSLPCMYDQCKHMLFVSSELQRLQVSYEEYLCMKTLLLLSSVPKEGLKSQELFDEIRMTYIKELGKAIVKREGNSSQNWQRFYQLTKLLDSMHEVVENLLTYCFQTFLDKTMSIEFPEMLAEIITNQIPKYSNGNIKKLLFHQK
Protocol: as §1, with “Tracer: ^3H-ORG 2058, 5nM; Referenzsubstanz: Progesteron. • Glucocorticoid-Rezeptor: Thymus-Cytosol der adrenalectomierten Ratte.” left out
as §2
Nach einer Inkubationsdauer von 18 Stunden bei 0-4 °C erfolgte die Trennung von gebundenen und freiem Steroid durch Einmischen von Aktivkohle/Dextran / 1%/0,1 %), abzentrifugieren und Messung der gebundenen ^3H-Aktivität im Überstand.

[1] = tested on: frühe Gravidität bei der Ratte; assay: Inhibition of early pregnancy in the rat (early abortive effect, subcutaneous); type: in vivo; settings: day 5-7 of pregnancy, empty uteri; for komplette Graviditätshemmung N#/N: N# non-pregnant females / N mated females
Protocol: Rattenweibchen wurde im Stadium Prooestrus angepaart. Bei Nachweis von Spermien im Vaginalbereich am nächsten Tag wird dieser als Tag 1 (d =1) der Gravidität gesetzt. Die Behandlung der Ratten mit Testsubstanz oder Vehikel erfolgt mit 0,2 ml Benzoylbenzoat /Rizinusöl (1+4 v/v) subcutan vom Tag 5 bis Tag 7 (d5 -d7), die Autopsie erfolgt am Tag d 9. Die Rate von vollständig gehemmten Graviditäten in den einzelnen Gruppen ergibt sich aus Tabelle 2. So wurde für die Beispiele 1 (J 1102), 3 (J 1116), 8 (J 1204) und 9 (J 1120) eine um den Faktor 10 überlegene Nidationshemmung gegenüber RU 486 (Mifepriston) ermittelt.

Row | SMILES | relative molare Bindungs-affinität RBA (%) zum Progesteronrezeptor Progesteron = 100 % (Progesteronrezeptor) [%] | relative molare Bindungs-affinität RBA (%) zum Glucocorticoidrezeptor Dexamethason = 100 % (Glucocorticoidrezeptor) [%] | komplette Graviditätshemmung N#/N ([1]; 0,3 mg/Tier/Tag s.c.) | komplette Graviditätshemmung % ([1]; 0,3 mg/Tier/Tag s.c.) [%] | komplette Graviditätshemmung N#/N ([1]; 1 mg/Tier/Tag s.c.) | komplette Graviditätshemmung % ([1]; 1 mg/Tier/Tag s.c.) [%] | komplette Graviditätshemmung N#/N ([1]; 3 mg/Tier/Tag s.c.) | komplette Graviditätshemmung % ([1]; 3 mg/Tier/Tag s.c.) [%]
1 | COC[C@]1(OC)CC[C@H]2[C@@H]3CCC4=CC(=O)CC[C@]45O[C@]35[C@@H](c3ccc(/C=N/O)cc3)C[C@@]21C [1 ( J 1102)] | 88 | 12 | – | – | – | – | – | –
2 | COC[C@]1(OC)CC[C@H]2[C@@H]3CCC4=CC(=O)CC[C@]45O[C@]35[C@@H](c3ccc(/C=N\O)cc3)C[C@@]21C [2 ( J 1160)] | 49 | 18 | – | – | – | – | – | –
3 | COC[C@]1(O)CC[C@H]2[C@@H]3CCC4=CC(=O)CC[C@]45O[C@]35[C@@H](c3ccc(/C=N/O)cc3)C[C@@]21C [3 ( J 1116)] | 47 | 12 | – | – | – | – | – | –
4 | COC[C@]1(O)CC[C@H]2[C@@H]3CCC4=CC(=O)CC[C@]45O[C@]35[C@@H](c3ccc(/C=N\O)cc3)C[C@@]21C [4 ( J 1182)] | 29 | – | – | – | – | – | – | –
5 | COC[C@]1(OC)CC[C@H]2[C@@H]3CCC4=CC(=O)CC[C@]45O[C@]35[C@@H](c3ccc(/C=N/OC(C)=O)cc3)C[C@@]21C [5 ( J 1130)] | 59 | 15 | – | – | – | – | – | –
6 | COC[C@]1(O)CC[C@H]2[C@@H]3CCC4=CC(=O)CC[C@]45O[C@]35[C@@H](c3ccc(/C=N/OC(C)=O)cc3)C[C@@]21C [6 ( J 1180)] | 31 | 8 | – | – | – | – | – | –
7 | CCOC(=O)O/N=C/c1ccc([C@H]2C[C@@]3(C)[C@@H](CC[C@]3(COC)OC)[C@@H]3CCC4=CC(=O)CC[C@]45O[C@]235)cc1 [9 ( J 1120)] | 63 | 15 | – | – | – | – | – | –
8 | CCNC(=O)O/N=C/c1ccc([C@H]2C[C@@]3(C)[C@@H](CC[C@@]3(O)COC)[C@@H]3CCC4=CC(=O)CC[C@]45O[C@]235)cc1 [16 ( J 1186)] | 64 | 13 | – | – | – | – | – | –
9 | CCNC(=O)O/N=C/c1ccc([C@H]2C[C@@]3(C)[C@@H](CC[C@]3(COC)OC)[C@@H]3CCC4=CC(=O)CC[C@]45O[C@]235)cc1 [17 ( J 1131)] | 68 | 30 | – | – | – | – | – | –
10 | COC[C@]1(OC)CC[C@H]2[C@@H]3CCC4=CC(=O)CCC4=C3[C@@H](c3ccc(/C=N/O)cc3)C[C@@]21C [J 867] | 302 | 77 | 0/5 | 0 | 5/5 | 100 | 5/5 | 100
11 | CC#C[C@]1(O)CC[C@H]2[C@@H]3CCC4=CC(=O)CCC4=C3[C@@H](c3ccc(N(C)C)cc3)C[C@@]21C [RU 486, Mifepriston] | – | 685 | 0/5 | 0 | 1/5 | 20 | 5/5 | 100
12 | CN(C)c1ccc([C@H]2C[C@]3(C)[C@@H](CC[C@]3(O)CCCO)[C@@H]3CCC4=CC(=O)CCC4=C32)cc1 [ZK 98299, Onapriston] | 22 | 39 | – | – | – | – | – | –
